Test results from PMC5461952 (Chemical research in toxicology, 2012).
“Also recorded” adds a separate entry of the source. Like-named read-outs stand apart in the source and are kept apart here.

Columns and labels:
human P450 2A6 = target: T1, human P450 2A6 (Homo sapiens, UniProt P11509); experiment: Coumarin 7-hydroxylation inhibition assay in supersomes
T1 sequence (P11509 1-494): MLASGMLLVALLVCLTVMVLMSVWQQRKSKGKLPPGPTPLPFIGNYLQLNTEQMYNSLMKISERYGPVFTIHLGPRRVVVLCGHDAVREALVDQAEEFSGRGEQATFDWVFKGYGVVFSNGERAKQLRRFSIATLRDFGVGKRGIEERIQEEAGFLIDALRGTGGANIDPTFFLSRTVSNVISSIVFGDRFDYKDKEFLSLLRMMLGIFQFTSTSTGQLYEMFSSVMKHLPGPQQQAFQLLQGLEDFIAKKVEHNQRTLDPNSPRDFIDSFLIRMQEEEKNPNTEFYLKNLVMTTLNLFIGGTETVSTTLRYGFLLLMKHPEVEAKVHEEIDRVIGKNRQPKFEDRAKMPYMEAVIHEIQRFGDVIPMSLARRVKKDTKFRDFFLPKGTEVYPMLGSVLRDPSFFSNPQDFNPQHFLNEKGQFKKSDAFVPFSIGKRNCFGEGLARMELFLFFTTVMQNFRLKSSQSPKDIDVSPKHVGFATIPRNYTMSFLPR

human P450 1A2 [1] = target: T2, human P450 1A2 (Homo sapiens, UniProt P05177); experiment: Mechanism-based; type: biochemical
T2 sequence (P05177 1-516): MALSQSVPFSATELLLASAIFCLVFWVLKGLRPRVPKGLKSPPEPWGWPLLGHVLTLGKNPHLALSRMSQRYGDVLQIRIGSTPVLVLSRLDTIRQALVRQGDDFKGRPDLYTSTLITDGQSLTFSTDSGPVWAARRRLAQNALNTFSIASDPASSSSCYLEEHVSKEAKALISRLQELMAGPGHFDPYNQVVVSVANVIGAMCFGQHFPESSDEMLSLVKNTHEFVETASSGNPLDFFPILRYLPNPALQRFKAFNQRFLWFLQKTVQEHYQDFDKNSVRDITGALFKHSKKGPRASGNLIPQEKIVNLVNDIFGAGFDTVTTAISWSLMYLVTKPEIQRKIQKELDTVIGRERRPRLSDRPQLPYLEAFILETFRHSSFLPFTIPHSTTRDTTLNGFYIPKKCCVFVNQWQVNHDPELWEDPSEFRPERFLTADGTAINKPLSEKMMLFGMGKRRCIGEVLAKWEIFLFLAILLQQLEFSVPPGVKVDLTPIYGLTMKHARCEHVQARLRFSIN

rat P4502B1 = target: T3, rat P4502B1 (Rattus norvegicus, UniProt P00176); experiment: PROD
T3 sequence (P00176 1-491): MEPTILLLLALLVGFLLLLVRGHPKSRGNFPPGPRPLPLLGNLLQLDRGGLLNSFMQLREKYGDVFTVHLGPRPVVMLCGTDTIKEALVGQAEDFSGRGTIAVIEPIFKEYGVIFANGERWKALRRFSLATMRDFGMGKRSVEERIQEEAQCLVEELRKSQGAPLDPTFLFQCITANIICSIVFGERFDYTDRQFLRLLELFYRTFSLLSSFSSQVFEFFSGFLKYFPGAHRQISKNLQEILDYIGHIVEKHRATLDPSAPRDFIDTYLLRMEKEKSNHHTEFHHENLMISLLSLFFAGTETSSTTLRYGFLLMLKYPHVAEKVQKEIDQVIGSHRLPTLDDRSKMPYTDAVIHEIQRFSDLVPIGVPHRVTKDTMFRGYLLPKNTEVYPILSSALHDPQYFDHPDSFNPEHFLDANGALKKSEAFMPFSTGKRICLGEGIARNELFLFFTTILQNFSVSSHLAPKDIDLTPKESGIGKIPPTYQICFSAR

human P450 1A1 [2] = target: T4, human P450 1A1 (Homo sapiens, UniProt P04798); experiment: Mechanism-based; type: biochemical
T4 sequence (P04798 1-512): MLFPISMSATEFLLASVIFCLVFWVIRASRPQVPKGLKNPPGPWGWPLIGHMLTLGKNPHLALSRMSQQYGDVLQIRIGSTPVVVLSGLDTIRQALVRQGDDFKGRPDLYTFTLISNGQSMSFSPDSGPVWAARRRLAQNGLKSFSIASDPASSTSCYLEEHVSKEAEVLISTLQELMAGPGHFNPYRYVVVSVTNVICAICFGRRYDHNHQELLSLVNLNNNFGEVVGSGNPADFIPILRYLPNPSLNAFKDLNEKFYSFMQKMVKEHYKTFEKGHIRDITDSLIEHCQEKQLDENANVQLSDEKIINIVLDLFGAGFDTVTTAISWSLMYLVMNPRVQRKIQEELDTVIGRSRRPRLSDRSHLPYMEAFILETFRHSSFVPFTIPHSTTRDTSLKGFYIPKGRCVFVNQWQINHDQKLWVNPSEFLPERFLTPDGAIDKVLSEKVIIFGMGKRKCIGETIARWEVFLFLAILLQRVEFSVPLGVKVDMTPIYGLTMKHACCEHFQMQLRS

CYP1A1 = target: T5, CYP1A1 (Homo sapiens, UniProt P04798); experiment: Mechanism-based; type: biochemical; conditions: human, human P450 1A1 supersomes, pH 7.6, probe 7-ethoxyresorufin (EROD)
T5 sequence (P04798 1-512): T4 sequence (P04798 1-512)

human P450 1A1 [3] = target: T4, human P450 1A1; experiment: EROD; type: biochemical; conditions: for IC50 P450 1A1: human P450 1A1 supersomes, EROD, 5 μM substrate, 37 °C, Dixon plot
human P450 1A2 [4] = target: T2, human P450 1A2; experiment: MROD; type: biochemical
[5] = 5 min preincubation in presence and absence of NADPH

SMILES: Cc1cc(Cl)c2c(c1N)C(=O)c1ccccc1C2=O [Compound 1, 1-Amino-4-chloro-2-methylanthracene-9,10-dione]
- IC50 (human P450 2A6): > 50 µM
- Ki (human P450 1A2 [1]): 0.5 µM
- Mechanism-based inhibition of P450 1A2 (result in words) (human P450 1A2 [1]; [5]): act as a mechanism-based inhibitor; also recorded: demonstrated mechanism-based inhibition
- kinact (human P450 1A2 [1]; read-out: Kinactivation, P450 1A2): 0.00133 s⁻¹
- IC50 (rat P4502B1): > 50 µM
- Mechanism-based inhibition of P450 1A1 (result in words) (human P450 1A1 [2]; [5]): act as a mechanism-based inhibitor; also recorded: demonstrated mechanism-based inhibition
- kinact (human P450 1A1 [2]; read-out: Kinactivation (rate constant for maximal inactivation at saturation), P450 1A1): 0.0262 s⁻¹
- KI (inactivation) at 6 min (CYP1A1): 5.38 µM
- IC50 P450 1A1 (human P450 1A1 [3]): submicromolar potency

SMILES: Nc1ccc(O)c2c1C(=O)c1ccccc1C2=O [Compound 2, 1-amino-4-hydroxyanthracene-9,10-dione]
- IC50 (human P450 2A6): > 50 µM
- Mechanism-based inhibition of P450 1A2 (result in words) (human P450 1A2 [1]; [5]): did not show mechanism-based inhibition; also recorded: does not demonstrate mechanism-based inhibition
- IC50 (rat P4502B1): 2.15 µM
- IC50 (human P450 1A2 [4]): 0.53 µM
- Mechanism-based inhibition of P450 1A1 (result in words) (human P450 1A1 [2]; [5]): did not show mechanism-based inhibition; also recorded: does not demonstrate mechanism-based inhibition
- IC50 (human P450 1A1 [3]): 2.09 µM

SMILES: CC(C)(C)C1=CC(=O)c2c(ccc(C(C)(C)C)c2O)C1=O [Compound 8, 2,6-Di-tert-butyl-5-hydroxynaphthalene-1,4-dione]
- IC50 (human P450 2A6): > 50 µM
- IC50 (rat P4502B1): 5.66 µM
- IC50 (human P450 1A2 [4]): > 50 µM
- IC50 P450 1A2 (human P450 1A2 [4]; human P450 1A2 supersomes, MROD, 5 μM substrate, 37 °C, Dixon plot): did not inhibit
- IC50 (human P450 1A1 [3]): > 50 µM
- IC50 P450 1A1 (human P450 1A1 [3]): did not inhibit

SMILES: Cc1cc(O)c2c(c1)C(=O)c1cc(O)cc(O)c1C2=O [emodin, Emodin, reference compound]
- IC50 (human P450 2A6): > 50 µM
- Mechanism-based inhibition of P450 1A2 (result in words) (human P450 1A2 [1]): did not cause mechanism-based inhibition
- IC50 (rat P4502B1): 14.9 µM
- Mechanism-based inhibition of P450 1A1 (result in words) (human P450 1A1 [2]): did not cause mechanism-based inhibition
